Experimental data taken from PubChem BioAssay (NCI).
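Interpolation was linear, between the two tested concentrations surrounding the appropriate level; five concentrations were tested over 48 hours in 96-well plates. TGI marks complete inhibition of growth.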

Legend:
Assay in all cases: DTP human tumour cell line panel, 48 h
786-0 renal = tested on: 786-0 renal
A549 NSCLC = tested on: A549 NSCLC
ACHN renal = tested on: ACHN renal
CAKI-1 renal = tested on: CAKI-1 renal
CCRF-CEM leukemia = tested on: CCRF-CEM leukemia
COLO 205 colon = tested on: COLO 205 colon
DU-145 prostate = tested on: DU-145 prostate
HCC-2998 colon = tested on: HCC-2998 colon
HCT-116 colon = tested on: HCT-116 colon
HCT-15 colon = tested on: HCT-15 colon
HOP-62 NSCLC = tested on: HOP-62 NSCLC
HOP-92 NSCLC = tested on: HOP-92 NSCLC
HS 578T breast = tested on: HS 578T breast
HT29 colon = tested on: HT29 colon
IGROV1 ovarian = tested on: IGROV1 ovarian
K-562 leukemia = tested on: K-562 leukemia
KM12 colon = tested on: KM12 colon
LOX IMVI melanoma = tested on: LOX IMVI melanoma
M14 melanoma = tested on: M14 melanoma
MALME-3M melanoma = tested on: MALME-3M melanoma
MCF7 breast = tested on: MCF7 breast
MDA-MB-435 = tested on: MDA-MB-435
MDA-N = tested on: MDA-N
MOLT-4 leukemia = tested on: MOLT-4 leukemia
NCI-H226 lung = tested on: NCI-H226 lung
NCI-H23 lung = tested on: NCI-H23 lung
NCI-H460 lung = tested on: NCI-H460 lung
NCI-H522 lung = tested on: NCI-H522 lung
NCI/ADR-RES ovarian = tested on: NCI/ADR-RES ovarian
OVCAR-3 ovarian = tested on: OVCAR-3 ovarian
OVCAR-4 ovarian = tested on: OVCAR-4 ovarian
OVCAR-5 ovarian = tested on: OVCAR-5 ovarian
OVCAR-8 ovarian = tested on: OVCAR-8 ovarian
PC-3 prostate = tested on: PC-3 prostate
RPMI-8226 leukemia = tested on: RPMI-8226 leukemia
RXF 393 renal = tested on: RXF 393 renal
SF-268 CNS = tested on: SF-268 CNS
SF-295 CNS = tested on: SF-295 CNS
SF-539 CNS = tested on: SF-539 CNS
SK-MEL-28 melanoma = tested on: SK-MEL-28 melanoma
SK-MEL-5 melanoma = tested on: SK-MEL-5 melanoma
SK-OV-3 ovarian = tested on: SK-OV-3 ovarian
SN12C renal = tested on: SN12C renal
SNB-75 CNS = tested on: SNB-75 CNS
SR leukemia = tested on: SR leukemia
SW-620 colon = tested on: SW-620 colon
T-47D breast = tested on: T-47D breast
TK-10 renal = tested on: TK-10 renal
U251 CNS = tested on: U251 CNS
UACC-62 melanoma = tested on: UACC-62 melanoma

Measured: TGI

CC(=O)OCC1OC(n2ncc(=O)[nH]c2=O)C(OC(C)=O)C1OC(C)=O (stereo not given)
> 100 µM: all assays above
